Where “and” joins values, the source holds several entries; their conditions need not be identical. Equal entries are not always repeated. Where two headings read alike, the source gives them in different places.
How the values were obtained:
LecB [1] = target: T1, LecB (Pseudomonas aeruginosa, UniProt Q9HYN5); assay: biochemical; assay type: binding; conditions: IC50, fluorescence polarization, TBS/Ca pH 7.4; mean ± SD of minimum three independent measurements of triplicates
LecB [2] = target: T1, LecB; conditions: ITC; cited from earlier work
LecB [3] = target: T1, LecB; conditions: for N: ITC stoichiometry; for difference in Kd / binding affinity from the equatorial methyl group: microcalorimetry, vs analog lacking the methyl group (4 vs 5; 3 vs 7)
LecB [4] = target: T1, LecB; assay: biochemical
[5] = 25°C, mean ± SD of minimum three titrations (5: indirect titration with 3, two titrations)
[6] = mean ± SD of minimum three titrations (5: indirect titration with 3, two titrations)
[7] = validation titration of LecB (56.1 µM) with 1 (700 µM)

T1 sequence (Q9HYN5 entry or part of it): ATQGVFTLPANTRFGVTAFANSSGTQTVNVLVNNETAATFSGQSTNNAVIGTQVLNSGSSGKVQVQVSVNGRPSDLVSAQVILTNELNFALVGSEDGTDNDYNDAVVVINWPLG

Question: Which results are given for `CO[C@@H]1OC[C@@H](O)[C@@H](O)[C@@H]1O` [compound 13, methyl β-D-arabinoside]?
Answer: IC50 (LecB [1]): 3.4 µM; -TΔS (LecB [2]): 1.29 kcal/mol; Kd (LecB [2]): 1.7 µM; ΔG (LecB [2]): -7.89 kcal/mol; ΔH (LecB [2]): -9.06 kcal/mol

Question: For `CO[C@H]1O[C@H](CO)[C@@H](O)[C@H](O)[C@@H]1O` [compound 2, methyl α-D-mannoside], which “-TΔS” value (LecB [2]) is on record?
Answer: -1.41 kcal/mol

Question: And the ΔH (LecB [2])?
Answer: -4.25 kcal/mol

Question: With `C[C@@H]1O[C@H](C)[C@@H](O)[C@H](O)[C@@H]1O` [compound 6, β-L-fucopyranosyl methane] as the molecule, how does the “-TΔS” value (LecB [3]; [5]) read?
Answer: -0.308 ± 0.43 kcal/mol

Question: And the ΔG (LecB [3]; [5])?
Answer: -6.5 ± 0.072 kcal/mol

Question: What about the ΔH (LecB [3]; [5]) of the same molecule?
Answer: -6.19 ± 0.382 kcal/mol

Question: And the N (LecB [3]; [6])?
Answer: 0.86 ± 0.2

Question: And the IC50 (LecB [1])?
Answer: 21 µM and 20.6 µM

Question: And the Kd (LecB [4])?
Answer: 16.9 ± 1.9 µM

Question: With `OC1[C@H](O)COC[C@H]1O` [compound 7, 1-deoxy D-arabinose] as the molecule, how does the “-TΔS” value (LecB [3]; [5]) read?
Answer: 1.14 ± 0.574 kcal/mol

Question: And the ΔG (LecB [3]; [5])?
Answer: -7.29 ± 0.072 kcal/mol

Question: What about the ΔH (LecB [3]; [5]) of the same molecule?
Answer: -8.44 ± 0.574 kcal/mol

Question: And the N (LecB [3]; [6])?
Answer: 0.81 ± 0.1

Question: And the IC50 (LecB [1])?
Answer: 9.7 µM and 9.65 µM

Question: What about the Kd (LecB [4]) of the same molecule?
Answer: 4.46 ± 0.7 µM

Question: Which “difference in Gibbs energy” value (LecB [3]; methyl α-L-fucoside (1) compared with 1-deoxy L-fucose (3)) does the source give for `CO[C@@H]1O[C@@H](C)[C@@H](O)[C@@H](O)[C@@H]1O` [compound 1, methyl α-L-fucoside, reference compound] here?
Answer: -0.359 kcal/mol

Question: What about the ΔG (LecB [3]; [7]) of the same molecule?
Answer: -8.525 kcal/mol

Question: And the ΔH (LecB [3]; [7])?
Answer: -9.257 kcal/mol

Question: What about the “-TΔS” value (LecB [2]) of the same molecule?
Answer: 1.17 kcal/mol

Question: What about the ΔH (LecB [2]) of the same molecule?
Answer: -9.87 kcal/mol

Question: Which results are given for `CC1OCC(O)C(O)C1O` [compound 3, 1-deoxy L-fucose]?
Answer: -TΔS (LecB [3]; [5]): 0.327 ± 0.263 kcal/mol; ΔG (LecB [3]; [5]): -8.34 ± 0.072 kcal/mol; ΔH (LecB [3]; [5]): -8.68 ± 0.22 kcal/mol; N (LecB [3]; [6]): 1.07 ± 0.03; difference in Kd / binding affinity from the equatorial methyl group (LecB [3]): 4- to 6 fold; IC50 (LecB [1]): 1.6 ± 0.7 µM; Kd (LecB [4]): 0.77 ± 0.1 µM

Question: For `C[C@@H]1O[C@H](CO)[C@@H](O)[C@H](O)[C@@H]1O` [compound 4, β-L-fucopyranosyl methanol], which “-TΔS” value (LecB [3]; [5]) is on record?
Answer: -0.588 ± 0.335 kcal/mol

Question: And the ΔG (LecB [3]; [5])?
Answer: -6.57 ± 0.239 kcal/mol

Question: What about the ΔH (LecB [3]; [5]) of the same molecule?
Answer: -5.98 ± 0.382 kcal/mol

Question: What about the N (LecB [3]; [6]) of the same molecule?
Answer: 0.86 ± 0.1

Question: What about the “difference in Kd / binding affinity from the equatorial methyl group” value (LecB [3]) of the same molecule?
Answer: 4- to 6 fold

Question: What about the IC50 (LecB [1]) of the same molecule?
Answer: 23 µM and 22.9 µM

Question: What about the Kd (LecB [4]) of the same molecule?
Answer: 16.1 µM

Question: Which results are given for `OC[C@H]1OC[C@@H](O)[C@@H](O)[C@@H]1O` [compound 5, 1-deoxy D-mannose]?
Answer: -TΔS (LecB [3]; [5]): -1.41 ± 0.382 kcal/mol; ΔG (LecB [3]; [5]): -5.69 ± 0.22 kcal/mol; ΔH (LecB [3]; [5]): -4.28 ± 0.14 kcal/mol; N (LecB [3]; [6]): 0.87 ± 0.18; IC50 (LecB [1]): 104 µM; Kd (LecB [4]): 69.1 ± 25 µM
